Laboratory results from patent US20220041647A1, “ESTRA-1,3,5(10)-TRIENE COMPOUNDS CONDENSED IN POSITION 16(17) WITH A PYRAZOLE RING AS INHIBITORS OF 17-HSD1” (FORENDO PHARMA LTD, priority 2018, published 2022).

Experiments:
[1] = target: T1, recombinant human 17β-HSD1 (Homo sapiens, UniProt P14061); experiment: Inhibition of recombinant human 17β-HSD1 (estrone to estradiol conversion, HPLC/radioactivity); type: biochemical; conditions: compound 100 nM; 30 nM estrone, 1 mM NADPH, 30 min RT
T1 construct: made in house; host or cells: Sd9 (Sf9) insect cells, baculovirus (Bac to Bac Expression System)
T1 sequence (P14061 1-328): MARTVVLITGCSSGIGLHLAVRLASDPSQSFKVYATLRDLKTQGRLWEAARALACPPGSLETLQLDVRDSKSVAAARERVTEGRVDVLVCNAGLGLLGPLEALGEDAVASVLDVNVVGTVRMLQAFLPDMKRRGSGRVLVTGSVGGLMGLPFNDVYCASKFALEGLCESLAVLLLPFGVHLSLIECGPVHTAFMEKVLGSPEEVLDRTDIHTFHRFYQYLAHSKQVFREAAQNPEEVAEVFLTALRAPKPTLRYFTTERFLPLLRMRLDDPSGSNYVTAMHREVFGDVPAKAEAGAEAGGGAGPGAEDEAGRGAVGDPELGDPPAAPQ
In short: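 Microsomal human 17β-HSD1 from Sf9 baculovirus (1 μg/ml) was incubated 30 min at RT in 20 mM KH2PO4 pH 7.4 with 30 nM ^3H-estrone, 1 mM NADPH and inhibitor at 1 μM or 0.1 μM (1% DMSO). Estrone and estradiol were separated by HPLC with radioactivity detection. % inhibition = 100 − % conversion relative to uninhibited control.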

[2] = target: T2, recombinant human 17β-HSD2 (Homo sapiens, UniProt P37059); experiment: Inhibition of recombinant human 17β-HSD2 (estradiol to estrone conversion, HPLC/radioactivity); type: biochemical; conditions: compound 1 μM; 50 nM estradiol, 1 mM NADH, 30 min RT
T2 construct: made in house; host or cells: Sd9 (Sf9) insect cells, baculovirus (Bac to Bac Expression System)
T2 sequence (P37059 1-387): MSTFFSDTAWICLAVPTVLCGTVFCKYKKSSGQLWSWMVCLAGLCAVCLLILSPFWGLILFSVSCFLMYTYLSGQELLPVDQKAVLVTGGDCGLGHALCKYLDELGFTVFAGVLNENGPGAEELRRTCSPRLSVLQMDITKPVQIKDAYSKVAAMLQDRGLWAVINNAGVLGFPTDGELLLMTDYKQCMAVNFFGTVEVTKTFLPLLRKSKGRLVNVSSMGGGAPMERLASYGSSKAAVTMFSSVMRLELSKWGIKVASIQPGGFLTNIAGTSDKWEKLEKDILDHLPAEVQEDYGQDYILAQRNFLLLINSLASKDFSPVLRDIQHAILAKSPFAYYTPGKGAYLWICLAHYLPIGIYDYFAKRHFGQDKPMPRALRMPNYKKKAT
In short: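 Membrane extract of Sf9 cells expressing recombinant human 17β-HSD2 (4 μg/ml), in 20 mM KH2PO4 pH 8.5 with 50 nM ^3H-spiked estradiol and 1 mM NADH, 30 min at RT, 1% DMSO. Compound at 1 μM or 0.1 μM; estrone formation by HPLC radioactivity, % inhibition relative to uninhibited conversion.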

[3] = Metabolic stability assay, human hepatocyte incubations; type: in vitro ADME; conditions: compound 1 μM, human hepatocytes, 0-60 min at 37° C.; read-out: Human hepatocytes MetStab T½ min
Method: Compound stock solutions of the invention were prepared in […]. Final concentration of DMSO was adjusted to 1% in all samples. The in vitro metabolic stability of the compounds of the invention was determined for exemplified compounds using human hepatocyte incubations; study compounds at concentration of 1 μM were incubated 0, 10, 20, 40 and 60 min at 37° C. Samples were collected at all time points and compounds were detected by LC-MS/MS analysis. The percent compound remaining is calculated by comparing the peak area of the parent compound at each time point to time zero. In vitro metabolic stability was determined as half life (T1/2), which was determined by regression analysis of the percent parent disappearance vs. time curve.

[4] = tested on: HSD1 enzyme that is expressed in rabbit placenta tissue; experiment: Inhibition of E1 to E2 conversion in rabbit placenta tissue homogenate; type: biochemical; conditions: compound 100 nM, 30 nM estrone, 1 mM β-NADPH, 30 min
In short: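 Rabbit placenta homogenate (20 mM KH2PO4, 1 mM EDTA, pH 7.4) incubated 30 min with 1 mM β-NADPH, 30 nM estrone plus 5 nM [3H]-estrone tracer, and inhibitor at 1 μM or 0.1 μM (1% DMSO). Stopped with TCA; estrone and estradiol resolved by HPLC with scintillation counting; % inhibition = 100 − % conversion relative to uninhibited control.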

Row | SMILES | inhibition at 0.1 µM [1] | inhibition at 1 µM [2] | half-life at 1 μM [3] | Rabbit placenta inhibition % @100 nM [4]
1 | C[C@]12CCC3c4ccccc4CCC3C1[C@H](CCC(=O)N1CCCC1)c1c[nH]nc12 (stereo partly drawn) [Compound 147, 3-((8aS,12S)-8a-methyl-1,2,6b,7,8,8a,10,12,12a,12b-decahydronaphtho[2′,1′:4,5]indeno[1,2-c]pyrazol-12-yl)-1-(pyrrolidin-1-yl)propan-1-one] | 86% | 11% | 9 min | 
2 | C[C@]12CCC3c4cccc(F)c4CCC3C1[C@H](CCC(=O)NC1CCOCC1)c1c[nH]nc12 (stereo partly drawn) [Compound 45, 3-((8aS,12S)-3-fluoro-8a-methyl-1,2,6b,7,8,8a,10,12,12a,12b-decahydronaphtho[2′,1′:4,5]indeno[1,2-c]pyrazol-12-yl)-N-(tetrahydro-2H-pyran-4-yl)propanamide] | 90% | 3% | 35 min | 
3 | CN(CC(C)(C)O)C(=O)CC[C@@H]1c2c[nH]nc2[C@@]2(C)CCC3c4cccc(F)c4CCC3C12 (stereo partly drawn) [Compound 243, 3-((8aS,12S)-3-fluoro-8a-methyl-1,2,6b,7,8,8a,10,12,12a,12b-decahydronaphtho[2′,1′:4,5]indeno[1,2-c]pyrazol-12-yl)-N-(2-hydroxy-2-methylpropyl)-N-methylpropanamide] | 80% | 5% | 15 min | 
4 | CC(C)(C)c1cc(NC(=O)CC[C@@H]2c3c[nH]nc3[C@@]3(C)CCC4c5ccc(F)cc5CCC4C23)no1 (stereo partly drawn) [Compound 102, N-(5-(tert-butyl)isoxazol-3-yl)-3-((8aS,12 S)-4-fluoro-8a-methyl-1,2,6b,7,8,8a,10,12,12a,12b-decahydronaphtho[2′,1′:4,5]indeno[1,2-c]pyrazol-12-yl)propanamide] | 80% | 8% |  | 19%
5 | Cc1ccc(NC(=O)CC[C@@H]2c3c[nH]nc3[C@@]3(C)CCC4c5cccc(F)c5CCC4C23)nn1 (stereo partly drawn) [Compound 228, 3-((8aS,12S)-3-fluoro-8a-methyl-1,2,6b,7,8,8a,10,12,12a,12b-decahydronaphtho[2′,1′:4,5]indeno[1,2-c]pyrazol-12-yl)-N-(6-methylpyridazin-3-yl)propanamide] | 87% | 3% |  | 67%
6 | C[C@]12CCC3c4ccc(Cl)cc4CCC3C1[C@H](CCC(=O)Nc1cccc(F)n1)c1c[nH]nc12 (stereo partly drawn) [Compound 135, 3-((8aS,12S)-4-chloro-8a-methyl-1,2,6b,7,8,8a,10,12,12a,12b-decahydronaphtho[2,1′:4,5]indeno[1,2-c]pyrazol-12-yl)-N-(6-fluoropyridin-2-yl)propanamide] | 86% | 2% |  | 31%
7 | C[C@]12CCC3c4ccccc4CCC3C1[C@H](CCC(=O)Nc1ccc(N3CCOCC3)cn1)c1c[nH]nc12 (stereo partly drawn) [Compound 252, 3-((8aS,12S)-8a-methyl-1,2,6b,7,8,8a,10,12,12a,12b-decahydronaphtho[2′,1′:4,5]indeno[1,2-c]pyrazol-12-yl)-N-(5-morpholinopyridin-2-yl)propanamide] | 90% | 7% |  | 46%
8 | C[C@]12CCC3c4cccc(F)c4CCC3C1[C@H](CCC(=O)NN1CCCCC1)c1c[nH]nc12 (stereo partly drawn) [Compound 69, 3-((8aS,12S)-3-fluoro-8a-methyl-1,2,6b,7,8,8a,10,12,12a,12b-decahydronaphtho[2′,1′:4,5]indeno[1,2-c]pyrazol-12-yl)-N-(piperidin-1-yl)propanamide] | 93% | 1% |  | 10%
9 | CN1CCC(N2CCN(C(=O)CC[C@@H]3c4c[nH]nc4[C@@]4(C)CCC5c6cccc(F)c6CCC5C34)CC2)CC1 (stereo partly drawn) [Compound 75, 3-((8aS,12S)-3-fluoro-8a-methyl-1,2,6b,7,8,8a,10,12,12a,12b-decahydronaphtho[2′,1′:4,5]indeno[1,2-c]pyrazol-12-yl)-1-(4-(1-methylpiperidin-4-yl)piperazin-1-yl)propan-1-one] | 71% | 2% |  | 15%
10 | Cc1ccc(NC(=O)CC[C@@H]2c3c[nH]nc3[C@@]3(C)CCC4c5ccccc5CCC4C23)nn1 (stereo partly drawn) [Compound 195, 3-((8aS,12S)-8a-methyl-1,2,6b,7,8,8a,10,12,12a,12b-decahydronaphtho[2′,1′:4,5]indeno[1,2-c]pyrazol-12-yl)-N-(6-methylpyridazin-3-yl)propanamide] | 70% | 10% |  | 61%
11 | Cn1cc(NC(=O)CC[C@@H]2c3c[nH]nc3[C@@]3(C)CCC4c5cccc(F)c5CCC4C23)cn1 (stereo partly drawn) [Compound 63, 3-((8aS,12S)-3-fluoro-8a-methyl-1,2,6b,7,8,8a,10,12,12a,12b-decahydronaphtho[2′,1′:4,5]indeno[1,2-c]pyrazol-12-yl)-N-(1-methyl-1H-pyrazol-4-yl)propanamide] | 96% | 2% |  | 62%
12 | C[C@]12CCC3c4cccc(F)c4CCC3C1[C@H](CCC(=O)Nc1cccnn1)c1c[nH]nc12 (stereo partly drawn) [Compound 237, 3-((8aS,12S)-3-fluoro-8a-methyl-1,2,6b,7,8,8a,10,12,12a,12b-decahydronaphtho[2′,1′:4,5]indeno[1,2-c]pyrazol-12-yl)-N-(pyridazin-3-yl)propanamide] | 84% | 1% |  | 58%
13 | C[C@]12CCC3c4ccccc4CCC3C1[C@H](CCC(=O)N1Cc3ccccc3C1)c1c[nH]nc12 (stereo partly drawn) [Compound 180, 1-(isoindolin-2-yl)-3-((8aS,12S)-8a-methyl-1,2,6b,7,8,8a,10,12,12a,12b-decahydronaphtho[2′,1′:4,5]indeno[1,2-c]pyrazol-12-yl)propan-1-one] | 92% | 12% |  | 14%
14 | COc1ccc(NC(=O)CC[C@@H]2c3c[nH]nc3[C@@]3(C)CCC4c5cccc(F)c5CCC4C23)nn1 (stereo partly drawn) [Compound 6, 3-((8aS,12S)-3-fluoro-8a-methyl-1,2,6b,7,8,8a,10,12,12a,12b-decahydronaphtho[2′,1′:4,5]indeno[1,2-c]pyrazol-12-yl)-N-(6-methoxypyridazin-3-yl)propanamide] | 93% | 8% |  | 86%
15 | C[C@]12CCC3c4ccccc4CCC3C1[C@H](CCC(=O)N1CCC3(CCOCC3)C1)c1c[nH]nc12 (stereo partly drawn) [Compound 177, 3-((8aS,12S)-8a-methyl-1,2,6b,7,8,8a,10,12,12a,12b-decahydronaphtho[2′,1′:4,5]indeno[1,2-c]pyrazol-12-yl)-1-(8-oxa-2-azaspiro[4.5]decan-2-yl)propan-1-one] | 89% | 4% |  | 16%
16 | Cc1ccc(NC(=O)CC[C@@H]2c3c[nH]nc3[C@@]3(C)CCC4c5ccc(F)cc5CCC4C23)nn1 (stereo partly drawn) [Compound 111, 3-((8aS,12S)-4-fluoro-8a-methyl-1,2,6b,7,8,8a,10,12,12a,12b-decahydronaphtho[2′,1′:4,5]indeno[1,2-c]pyrazol-12-yl)-N-(6-methylpyridazin-3-yl)propanamide] | 48% | 1% |  | 55%
